# Measured values from patent US10857193B2, “Extract formulation of Opuntia ficus indica” (FINZELBERG GMBH & CO. KG, priority 2007, dated 2020).
# Test system: blood glucose
# Test: Oral glucose tolerance test (oGTT), hypoglycaemic effect in an animal model
# Type: in vivo, Wistar rats
# Details: oGTT in rats, result in words; FIG. 3 expressed as percent AUC vs control, n=5-6 per group
# Method: A standard means of testing extracts or novel chemical compounds for effects on blood sugar levels is the oGTT (Verspohl, 2002). This involves administering the extract, a blind control or a known anti-diabetic to different groups of a rat population and administering an […] dose of glucose to a sub-group of each group. The extracts were administered 30 minutes before the glucose. Blood samples were taken sublingually 0, 15, 30, 60 and 120 minutes after glucose administration or at 0, 30, 60, 120 and 180 minutes for baseline blood sugar levels. The sampling schedule described served both to track the effect of the extracts on baseline blood sugar levels over a longer period and to track the effect on blood sugar levels following a glucose load.
# All of the tested extracts, the blind control and the glibenclamide reference oral anti-diabetic contained propylene glycol as a solubilising agent and were administered orally via a feeding tube. […]
# The samples were centrifuged at 8600 U/min for 10 minutes. The plasma supernatant was then analysed using an autoanalyser (Merck, Darmstadt). […]
# Concentrations and kinetic data were analysed in Graphpad 4.0 (San Diego, USA) using one-way variance analysis (ANOVA) and the Newman-Keuls multiple comparison test. The area under the curve (AUC) was determined using the trapezoidal method without extrapolation beyond the final sampling point.
compound,measurement,value
"COc1ccc(Cl)cc1C(=O)NCCc1ccc(S(=O)(=O)NC(=O)NC2CCCCC2)cc1 [glibenclamide, Glibenclamide]",hypoglycaemic effect,hypoglycaemic effect
